Measurements reported in the supplement of paper PMC10733146.

Columns and labels:
Experiment in all cases: viability relative to DMSO control (fraction); higher = less drug effect (more viable cells)
Details in all cases: 48 h
[1] = system: primary MCL patient cells (S068)
In short: (§1)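 Primary mononuclear tumour cells (Ficoll-isolated from blood or bone marrow, or processed lymph node; fresh or cryopreserved) were plated at 4 × 10^4 cells per well in 384-well plates with pre-plated compounds at five concentrations, one well each. Medium was RPMI-1640 with penicillin/streptomycin, L-glutamine and human serum, at 37 °C and 5% CO2 for 48 h. Viability was read as CellTiter-Glo luminescence relative to the median of 16 inner DMSO wells.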

[2] = system: primary AML patient cells (S006)
In short: as §1

[3] = system: primary AML patient cells (S007)
In short: as §1

[4] = system: primary AML patient cells (S056)
In short: as §1

[5] = system: primary AML patient cells (S081)
In short: as §1

[6] = system: primary AML patient cells (S085)
In short: as §1

[7] = system: primary AML patient cells (S037)
In short: as §1

[8] = system: primary AML patient cells (S011)
In short: as §1

[9] = system: primary CLL patient cells (S043)
In short: as §1

[10] = system: primary BL patient cells (S005)
In short: as §1

[11] = system: primary AML patient cells (S012)
In short: as §1

[12] = system: primary MCL patient cells (S063)
In short: as §1

[13] = system: primary CLL patient cells (S031)
In short: as §1

[14] = system: primary MCL patient cells (S041)
In short: as §1

[15] = system: primary T-PLL patient cells (S008)
In short: as §1

[16] = system: primary T-NHL patient cells (S058)
In short: as §1

[17] = system: primary DLBCL patient cells (S076)
In short: as §1

[18] = system: primary DLBCL patient cells (S049)
In short: as §1

CC(C)c1cc(C(=O)N2Cc3ccc(CN4CCN(C)CC4)cc3C2)c(O)cc1O [Onalespib]
viability ([1]; 0.0032 µM): 1.04 | viability ([1]; 0.016 µM): 1.44 | viability ([1]; 0.08 µM): 0.814 | viability ([1]; 0.4 µM): 0.497 | viability ([1]; 2 µM): 0.419 | viability ([2]; 0.0032 µM): 0.788 | viability ([2]; 0.016 µM): 0.312 | viability ([2]; 0.08 µM): 0.124 | viability ([2]; 0.4 µM): 0.213 | viability ([2]; 2 µM): 0.239 | viability ([3]; 0.0032 µM): 0.566 | viability ([3]; 0.016 µM): 0.114 | viability ([3]; 0.08 µM): 0.0773 | viability ([3]; 0.4 µM): 0.102 | viability ([3]; 2 µM): 0.111 | viability ([4]; 0.0032 µM): 0.743 | viability ([4]; 0.016 µM): 0.29 | viability ([4]; 0.08 µM): 0.142 | viability ([4]; 0.4 µM): 0.164 | viability ([4]; 2 µM): 0.174 | viability ([5]; 0.0032 µM): 1.05 | viability ([5]; 0.016 µM): 1.08 | viability ([5]; 0.08 µM): 0.311 | viability ([5]; 0.4 µM): 0.0842 | viability ([5]; 2 µM): 0.0764 | viability ([6]; 0.0032 µM): 0.928 | viability ([6]; 0.016 µM): 0.942 | viability ([6]; 0.08 µM): 0.334 | viability ([6]; 0.4 µM): 0.233 | viability ([6]; 2 µM): 0.237 | viability ([7]; 0.0032 µM): 0.914 | viability ([7]; 0.016 µM): 0.992 | viability ([7]; 0.08 µM): 0.887 | viability ([7]; 0.4 µM): 0.962 | viability ([7]; 2 µM): 0.916 | viability ([8]; 0.0032 µM): 0.712 | viability ([8]; 0.016 µM): 0.916 | viability ([8]; 0.08 µM): 0.399 | viability ([8]; 0.4 µM): 0.684 | viability ([8]; 2 µM): 0.66 | viability ([9]; 0.0032 µM): 0.987 | viability ([9]; 0.016 µM): 1.1 | viability ([9]; 0.08 µM): 0.811 | viability ([9]; 0.4 µM): 0.585 | viability ([9]; 2 µM): 0.395 | viability ([10]; 0.0032 µM): 1.56 | viability ([10]; 0.016 µM): 1.32 | viability ([10]; 0.08 µM): 1.42 | viability ([10]; 0.4 µM): 0.756 | viability ([10]; 2 µM): 0.792 | viability ([11]; 0.0032 µM): 0.973 | viability ([11]; 0.016 µM): 1.02 | viability ([11]; 0.08 µM): 0.657 | viability ([11]; 0.4 µM): 0.139 | viability ([11]; 2 µM): 0.15 | viability ([12]; 0.0032 µM): 0.9 | viability ([12]; 0.016 µM): 1.27 | viability ([12]; 0.08 µM): 0.447 | viability ([12]; 0.4 µM): 0.1 | viability ([12]; 2 µM): 0.0867 | viability ([13]; 0.0032 µM): 0.896 | viability ([13]; 0.016 µM): 0.929 | viability ([13]; 0.08 µM): 0.432 | viability ([13]; 0.4 µM): 0.235 | viability ([13]; 2 µM): 0.246 | viability ([14]; 0.0032 µM): 0.95 | viability ([14]; 0.016 µM): 1.05 | viability ([14]; 0.08 µM): 0.724 | viability ([14]; 0.4 µM): 0.53 | viability ([14]; 2 µM): 0.445 | viability ([15]; 0.0032 µM): 1.1 | viability ([15]; 0.016 µM): 1.06 | viability ([15]; 0.08 µM): 1.06 | viability ([15]; 0.4 µM): 0.989 | viability ([15]; 2 µM): 0.993

CC#CC(=O)N1CCC[C@H]1c1nc(-c2ccc(C(=O)Nc3ccccn3)cc2)c2c(N)nccn12 [Acalabrutinib (ACP-196)]
viability ([16]; 0.008 µM): 1.16 | viability ([16]; 0.04 µM): 1.21 | viability ([16]; 0.2 µM): 1.14 | viability ([16]; 1 µM): 1.25 | viability ([16]; 5 µM): 1.06 | viability ([1]; 0.008 µM): 0.878 | viability ([1]; 0.04 µM): 0.805 | viability ([1]; 0.2 µM): 0.788 | viability ([1]; 1 µM): 0.767 | viability ([1]; 5 µM): 0.785 | viability ([2]; 0.008 µM): 1.08 | viability ([2]; 0.04 µM): 1.1 | viability ([2]; 0.2 µM): 1.09 | viability ([2]; 1 µM): 1.08 | viability ([2]; 5 µM): 1.04 | viability ([3]; 0.008 µM): 0.895 | viability ([3]; 0.04 µM): 0.945 | viability ([3]; 0.2 µM): 0.911 | viability ([3]; 1 µM): 1.07 | viability ([3]; 5 µM): 1.04 | viability ([4]; 0.008 µM): 1.04 | viability ([4]; 0.04 µM): 1.55 | viability ([4]; 0.2 µM): 1.02 | viability ([4]; 1 µM): 0.929 | viability ([4]; 5 µM): 0.766 | viability ([5]; 0.008 µM): 1.01 | viability ([5]; 0.04 µM): 1.05 | viability ([5]; 0.2 µM): 0.985 | viability ([5]; 1 µM): 1.02 | viability ([5]; 5 µM): 1.02 | viability ([6]; 0.008 µM): 1.05 | viability ([6]; 0.04 µM): 1.14 | viability ([6]; 0.2 µM): 1.01 | viability ([6]; 1 µM): 0.989 | viability ([6]; 5 µM): 1.02 | viability ([7]; 0.008 µM): 1.07 | viability ([7]; 0.04 µM): 1.62 | viability ([7]; 0.2 µM): 1.07 | viability ([7]; 1 µM): 1.22 | viability ([7]; 5 µM): 1.05 | viability ([8]; 0.008 µM): 1.03 | viability ([8]; 0.04 µM): 1.02 | viability ([8]; 0.2 µM): 1.01 | viability ([8]; 1 µM): 0.864 | viability ([8]; 5 µM): 1.01 | viability ([9]; 0.008 µM): 0.794 | viability ([9]; 0.04 µM): 0.768 | viability ([9]; 0.2 µM): 0.73 | viability ([9]; 1 µM): 0.701 | viability ([9]; 5 µM): 0.72 | viability ([10]; 0.008 µM): 1.07 | viability ([10]; 0.04 µM): 1.15 | viability ([10]; 0.2 µM): 1.05 | viability ([10]; 1 µM): 1.17 | viability ([10]; 5 µM): 1.08 | viability ([17]; 0.008 µM): 1.08 | viability ([17]; 0.04 µM): 1.14 | viability ([17]; 0.2 µM): 1.11 | viability ([17]; 1 µM): 1.12 | viability ([17]; 5 µM): 1.06 | viability ([11]; 0.008 µM): 1.08 | viability ([11]; 0.04 µM): 1.16 | viability ([11]; 0.2 µM): 1.14 | viability ([11]; 1 µM): 1.16 | viability ([11]; 5 µM): 1.21 | viability ([18]; 0.008 µM): 0.892 | viability ([18]; 0.04 µM): 0.758 | viability ([18]; 0.2 µM): 0.693 | viability ([18]; 1 µM): 0.74 | viability ([18]; 5 µM): 0.704 | viability ([12]; 0.008 µM): 0.697 | viability ([12]; 0.04 µM): 0.328 | viability ([12]; 0.2 µM): 0.276 | viability ([12]; 1 µM): 0.246 | viability ([12]; 5 µM): 0.262 | viability ([13]; 0.008 µM): 0.877 | viability ([13]; 0.04 µM): 0.817 | viability ([13]; 0.2 µM): 0.742 | viability ([13]; 1 µM): 0.722 | viability ([13]; 5 µM): 0.713 | viability ([14]; 0.008 µM): 1 | viability ([14]; 0.04 µM): 1 | viability ([14]; 0.2 µM): 0.859 | viability ([14]; 1 µM): 0.899 | viability ([14]; 5 µM): 0.855 | viability ([15]; 0.008 µM): 1.11 | viability ([15]; 0.04 µM): 1.01 | viability ([15]; 0.2 µM): 1.08 | viability ([15]; 1 µM): 0.989 | viability ([15]; 5 µM): 1.13
